For four compounds, Kd results are on record in article PMC10763615, “Identification and engineering of potent cyclic peptides with selective or promiscuous binding through biochemical profiling and bioinformatic data analysis” (RSC Chemical Biology, 2023).

What all share (format): binding
In one assay the target is T1, FGF-R4 ECD (Homo sapiens, UniProt P22455).
T1 construct: DNA constructs for the extracellular domain (ECD) of human FGF-; HPC4 (C); made in house; host or cells: HEK 293-6E
T1 sequence (P22455 22-369 limits assumed): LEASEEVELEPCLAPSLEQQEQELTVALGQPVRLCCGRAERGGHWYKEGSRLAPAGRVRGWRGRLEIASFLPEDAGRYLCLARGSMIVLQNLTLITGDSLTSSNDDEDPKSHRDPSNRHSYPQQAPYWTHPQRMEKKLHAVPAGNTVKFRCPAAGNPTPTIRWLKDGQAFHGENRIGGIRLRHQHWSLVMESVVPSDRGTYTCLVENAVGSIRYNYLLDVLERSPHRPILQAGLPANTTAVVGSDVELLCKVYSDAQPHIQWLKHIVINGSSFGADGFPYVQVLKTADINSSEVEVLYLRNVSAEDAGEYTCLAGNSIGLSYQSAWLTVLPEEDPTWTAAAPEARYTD
The assay is described as follows: single concentration BLI of crude peptides. Particulars: read-out: KD (4). The essentials:
(§1)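 BLI, streptavidin sensors loaded with biotinylated receptor ECD. Single-point: ~1 μM crude peptide, PBS pH7.4/0.05% Tween-20/0.01% BSA; association then dissociation in buffer. KD corrected for UPLC-CAD-determined concentration.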

The target of a further assay is T2, FGF-R1C ECD (Homo sapiens, UniProt P11362).
T2 sequence (P11362 22-376 limits assumed): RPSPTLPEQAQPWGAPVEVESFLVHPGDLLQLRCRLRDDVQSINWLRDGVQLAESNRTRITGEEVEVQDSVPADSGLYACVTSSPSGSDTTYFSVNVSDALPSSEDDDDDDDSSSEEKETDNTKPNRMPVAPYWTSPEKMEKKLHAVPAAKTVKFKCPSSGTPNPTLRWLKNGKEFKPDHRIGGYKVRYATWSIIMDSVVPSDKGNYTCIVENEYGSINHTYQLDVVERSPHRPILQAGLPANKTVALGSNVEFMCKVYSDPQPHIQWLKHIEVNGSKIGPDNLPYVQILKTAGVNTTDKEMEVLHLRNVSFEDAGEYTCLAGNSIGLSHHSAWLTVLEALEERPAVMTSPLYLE
As to the kind of experiment: biochemical. On the set-up: DNA constructs for the extracellular domain (ECD) of human FGF-; HPC4 (C); made in house; host or cells: HEK 293-6E. In outline: as §1

The next assay addresses T3, FGF-R3C ECD (Homo sapiens, UniProt P22607).
T3 sequence (P22607 23-375 limits assumed): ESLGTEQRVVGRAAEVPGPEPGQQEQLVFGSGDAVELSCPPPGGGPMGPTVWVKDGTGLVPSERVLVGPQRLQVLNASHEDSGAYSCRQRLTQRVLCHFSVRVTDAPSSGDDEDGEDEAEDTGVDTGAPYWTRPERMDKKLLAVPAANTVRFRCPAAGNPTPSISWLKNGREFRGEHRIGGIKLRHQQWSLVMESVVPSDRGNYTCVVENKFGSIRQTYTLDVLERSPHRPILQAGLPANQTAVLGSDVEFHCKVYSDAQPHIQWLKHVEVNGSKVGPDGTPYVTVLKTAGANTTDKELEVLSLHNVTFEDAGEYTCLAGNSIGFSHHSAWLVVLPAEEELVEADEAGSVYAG
As to the kind of experiment: biochemical. Further details: DNA constructs for the extracellular domain (ECD) of human FGF-; HPC4 (C); made in house; host or cells: HEK 293-6E. The essentials: as §1

Setting [1] is: crude NNK peptides, single concentration BLI (Table S3).

Like-named read-outs stand apart in the source and are kept apart here. Positions of bridges follow the written chain, without caps; N, C: chain ends. Residues, ends and D or L forms follow the SMILES beside them. Some results are limits rather than exact numbers.

For orientation: Kd means the constant that tells how readily two partners part at equilibrium. For the compound `CC[C@H](C)[C@@H]1NC(=O)[C@H](CO)NC(=O)[C@H](Cc2ccccc2)NC(=O)[C@H](Cc2c[nH]cn2)NC(=O)CNC(=O)[C@@H](NC(=O)[C@H](CCSC)NC(C)=O)CSSC[C@@H](C(=O)NCC(=O)N[C@@H](CO)C(=O)NCC(=O)N[C@@H](CO)C(=O)N[C@@H](CC(=O)O)C(=O)N[C@@H](Cc2ccc(O)cc2)C(=O)N[C@@H](CCCCN)C(=O)N[C@@H](CC(=O)O)C(=O)N[C@@H](CC(=O)O)C(=O)N[C@@H](CC(=O)O)C(=O)N[C@@H](CC(=O)O)C(=O)N[C@@H](CCCCN)C(N)=O)NC(=O)[C@H](Cc2c[nH]c3ccccc23)NC(=O)[C@H](CCCCN)NC(=O)[C@H](Cc2ccccc2)NC(=O)[C@H](Cc2c[nH]c3ccccc23)NC(=O)[C@H]([C@@H](C)O)NC1=O` (Ac-MCGHFSITWFKWCGSGSDYKDDDDK-NH2; disulfide 2-13), the Kd on FGF-R4 ECD (setting [1]), at FGF-R1C ECD and on FGF-R3C ECD was over 10 µM in each case.
For `CSCC[C@H](NC(C)=O)C(=O)N[C@H]1CSSC[C@@H](C(=O)NCC(=O)N[C@@H](CO)C(=O)NCC(=O)N[C@@H](CO)C(=O)N[C@@H](CC(=O)O)C(=O)N[C@@H](Cc2ccc(O)cc2)C(=O)N[C@@H](CCCCN)C(=O)N[C@@H](CC(=O)O)C(=O)N[C@@H](CC(=O)O)C(=O)N[C@@H](CC(=O)O)C(=O)N[C@@H](CC(=O)O)C(=O)N[C@@H](CCCCN)C(N)=O)NC(=O)[C@H](C(C)C)NC(=O)[C@H](CCCNC(=N)N)NC(=O)[C@H](CCSC)NC(=O)[C@H](C(C)C)NC(=O)[C@H](CCCCN)NC(=O)[C@H](Cc2ccc(O)cc2)NC(=O)[C@H](CC(C)C)NC(=O)[C@H](CC(C)C)NC(=O)[C@H](C(C)C)NC(=O)CNC1=O` (Ac-MCGVLLYKVMRVCGSGSDYKDDDDK-NH2; disulfide 2-13), the values for the equilibrium dissociation constant (Kd) on FGF-R4 ECD (setting [1]), on FGF-R1C ECD and on FGF-R3C ECD were 0.124 µM, over 10 µM and over 10 µM, respectively.
As for `CC[C@H](C)[C@@H]1NC(=O)[C@H](Cc2c[nH]cn2)NC(=O)[C@@H](NC(=O)[C@H](CCSC)NC(C)=O)CSSC[C@@H](C(=O)NCC(=O)N[C@@H](CO)C(=O)NCC(=O)N[C@@H](CO)C(=O)N[C@@H](CCC(=O)O)C(=O)N[C@@H](CCC(=O)O)C(=O)NCC(=O)N[C@@H](CO)C(=O)NCC(=O)N[C@@H](CO)C(=O)N[C@@H](CC(=O)O)C(=O)N[C@@H](Cc2ccc(O)cc2)C(=O)N[C@@H](CCCCN)C(=O)N[C@@H](CC(=O)O)C(=O)N[C@@H](CC(=O)O)C(=O)N[C@@H](CC(=O)O)C(=O)N[C@@H](CC(=O)O)C(=O)N[C@@H](CCCCN)C(N)=O)NC(=O)[C@H](Cc2c[nH]cn2)NC(=O)[C@H](CCCCN)NC(=O)[C@H](CCCNC(=N)N)NC(=O)[C@H](C(C)C)NC(=O)[C@H](CC(C)C)NC(=O)[C@H](CCC(N)=O)NC(=O)[C@H](Cc2c[nH]c3ccccc23)NC(=O)[C@H](Cc2ccc(O)cc2)NC(=O)[C@H](CCCNC(=N)N)NC1=O` (Ac-MCHIRYWQLVRKHCGSGSEEGSGSDYKDDDDK-NH2; disulfide 2-14), the dissociation constant Kd on FGF-R4 ECD (crude T18 selection 1 (1:1:1) peptides, single concentration BLI (Table S4)) was 0.01 µM; on FGF-R1C ECD it was over 10 µM; on FGF-R3C ECD it was over 10 µM.
With `CC[C@H](C)[C@@H]1NC(=O)[C@H](CCCCN)NC(=O)[C@H](Cc2ccc(O)cc2)NC(=O)[C@H]([C@@H](C)CC)NC(=O)[C@H]([C@@H](C)O)NC(=O)[C@H]([C@@H](C)CC)NC(=O)[C@H](Cc2c[nH]cn2)NC(=O)[C@@H](NC(=O)[C@H](CCSC)NC(C)=O)CSSC[C@@H](C(=O)NCC(=O)N[C@@H](CO)C(=O)NCC(=O)N[C@@H](CO)C(=O)N[C@@H](CC(=O)O)C(=O)N[C@@H](Cc2ccc(O)cc2)C(=O)N[C@@H](CCCCN)C(=O)N[C@@H](CC(=O)O)C(=O)N[C@@H](CC(=O)O)C(=O)N[C@@H](CC(=O)O)C(=O)N[C@@H](CC(=O)O)C(=O)N[C@@H](CCCCN)C(N)=O)NC(=O)[C@H](Cc2ccc(O)cc2)NC(=O)[C@H](CCCNC(=N)N)NC(=O)[C@H](CC(C)C)NC1=O` (Ac-MCHITIYKILRYCGSGSDYKDDDDK-NH2; disulfide 2-13), the dissociation constant Kd on FGF-R4 ECD (setting [1]) was 0.124 µM; at FGF-R1C ECD, over 10 µM; at FGF-R3C ECD it was over 10 µM.
